Values of other authors in patent US20180263953A1, “Sustained Release Cannabinoid Formulations” (CannTab Therapeutics, Limited, priority 2016, published 2018).

Legend:
[1] = after administration
[2] = low solubility and unknown permeability; NICHD/FDA Oral Formulations Platform Report 1

Structure (SMILES): CCCCCc1cc(O)c2c(c1)OC(C)(C)[C@@H]1CCC(C)=C[C@@H]21 [Dronabinol, (−)-trans-Δ^9-tetrahydrocannabinol]
- duration of appetite stimulant effect [1]: ≥ 24 h
- BCS class [2]: class 2 or class 4
